Data reported in publication PMC6333442, “Conserved allosteric pathways for activation of TRPV3 revealed through engineering vanilloid-sensitivity” (eLife, 2019).

Tests used:
TRPV3-4M/V2P = assay: Two-electrode voltage clamp, TRPV3-4M/V2P chimera in oocytes; type: cell-based, mouse; conditions: RTx 100 nM, 2-APB 3 mM, room temperature, ±60 mV
Description: (§1) All channel constructs were expressed in Xenopus laevis oocytes and studied using the two-electrode voltage clamp technique (TEVC) following 1–4 days of incubation after cRNA injection. The animal care and experimental procedures were performed in accordance with the Guide for the Care and Use of Laboratory Animals and were approved by the Animal Care and Use Committee of the National Institute of Neurological Disorders and Stroke (Animal protocol number 1253–17). Oocytes were removed surgically and incubated with agitation for 1 hr in a solution containing (in mM) 82.5 NaCl, 2.5 KCl, 1 MgCl2, 5 HEPES, pH 7.6 (with NaOH), and collagenase (2 mg/ml; Worthington Biochemical, Lakewood, NJ). Defolliculated oocytes were injected with cRNA for each of the constructs and incubated at 17°C in a solution containing (in mM) 96 NaCl, 2 KCl, 1 MgCl2, 1.8 CaCl2, 5 HEPES, pH 7.6 (with NaOH), and gentamicin (50 μg/ml, GIBCO-BRL, Gaithersburg, MD). Oocyte membrane voltage was controlled using an OC-725C oocyte clamp (Warner Instruments, Hamden, CT). Data were filtered at 1–3 kHz and digitized at 20 kHz using pClamp software (Molecular Devices, Sunnyvale, CA) and a Digidata 1440A digitizer (Axon Instruments). Microelectrode resistances were 0.1–1 MΩ when filled with 3 M KCl. For recording TRP channel currents, the external recording solution contained (in mM) 100 KCl, 10 HEPES, pH 7.6 (with KOH). […]

[1] = tested on: TRPV3-6M + I595L, K611D, L635F, L639M or Y650F; assay: Two-electrode voltage clamp, TRPV3-6M with individual pore mutations (weak RTx responders); type: cell-based, mouse; conditions: RTx 100 nM, room temperature; smaller than responses to 2-APB
Description: as §1

TRPV3-6M/4PM = molecular target: T1, TRPV3-6M/4PM (Mus musculus, UniProt Q8K424, A560T/F522S/F625L/F656I/F666Y/H523E/L557M/Q580E/V587L/W521Y); assay: Two-electrode voltage clamp, TRPV3-6M/4PM in oocytes; type: cell-based; conditions: RTx 100 nM, 2-APB 3 mM, +60 mV
T1 construct: expressed in transfected cells; host or cells: Xenopus laevis oocytes
T1 sequence (Q8K424 1-791 W521Y/F522S/H523E/L557M/A560T/Q580E/V587L/F625L/F656I/F666Y): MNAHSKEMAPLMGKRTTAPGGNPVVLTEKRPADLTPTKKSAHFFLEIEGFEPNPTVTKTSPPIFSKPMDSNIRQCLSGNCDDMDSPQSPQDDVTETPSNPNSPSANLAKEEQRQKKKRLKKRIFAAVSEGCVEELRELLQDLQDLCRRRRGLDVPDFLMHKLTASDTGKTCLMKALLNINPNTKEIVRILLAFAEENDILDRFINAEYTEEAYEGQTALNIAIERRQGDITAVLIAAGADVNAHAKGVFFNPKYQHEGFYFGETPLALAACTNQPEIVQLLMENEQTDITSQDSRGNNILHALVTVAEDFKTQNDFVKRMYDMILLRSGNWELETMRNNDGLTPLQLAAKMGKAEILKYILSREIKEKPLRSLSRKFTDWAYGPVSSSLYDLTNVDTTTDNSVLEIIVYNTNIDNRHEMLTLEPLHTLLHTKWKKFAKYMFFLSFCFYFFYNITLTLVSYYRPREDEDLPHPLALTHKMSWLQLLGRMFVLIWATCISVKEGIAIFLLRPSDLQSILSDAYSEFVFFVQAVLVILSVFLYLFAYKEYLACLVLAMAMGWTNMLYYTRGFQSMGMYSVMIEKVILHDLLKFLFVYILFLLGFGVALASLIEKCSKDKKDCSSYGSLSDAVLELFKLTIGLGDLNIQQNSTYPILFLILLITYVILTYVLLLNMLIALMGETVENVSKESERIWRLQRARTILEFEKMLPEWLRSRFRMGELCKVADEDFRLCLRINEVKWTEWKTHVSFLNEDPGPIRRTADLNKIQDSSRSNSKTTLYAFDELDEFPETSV
Description: as §1

rat TRPV2-4M = molecular target: T2, rat TRPV2-4M (Rattus norvegicus, UniProt Q9WUD2, F472S/L507M/L510T/Q530E); design: method as in Zhang et al., 2016; conditions: ref Zhang et al., 2016; cited from earlier work
T2 construct: expressed in transfected cells; host or cells: Xenopus laevis oocytes
T2 sequence (Q9WUD2 1-761 F472S/L507M/L510T/Q530E): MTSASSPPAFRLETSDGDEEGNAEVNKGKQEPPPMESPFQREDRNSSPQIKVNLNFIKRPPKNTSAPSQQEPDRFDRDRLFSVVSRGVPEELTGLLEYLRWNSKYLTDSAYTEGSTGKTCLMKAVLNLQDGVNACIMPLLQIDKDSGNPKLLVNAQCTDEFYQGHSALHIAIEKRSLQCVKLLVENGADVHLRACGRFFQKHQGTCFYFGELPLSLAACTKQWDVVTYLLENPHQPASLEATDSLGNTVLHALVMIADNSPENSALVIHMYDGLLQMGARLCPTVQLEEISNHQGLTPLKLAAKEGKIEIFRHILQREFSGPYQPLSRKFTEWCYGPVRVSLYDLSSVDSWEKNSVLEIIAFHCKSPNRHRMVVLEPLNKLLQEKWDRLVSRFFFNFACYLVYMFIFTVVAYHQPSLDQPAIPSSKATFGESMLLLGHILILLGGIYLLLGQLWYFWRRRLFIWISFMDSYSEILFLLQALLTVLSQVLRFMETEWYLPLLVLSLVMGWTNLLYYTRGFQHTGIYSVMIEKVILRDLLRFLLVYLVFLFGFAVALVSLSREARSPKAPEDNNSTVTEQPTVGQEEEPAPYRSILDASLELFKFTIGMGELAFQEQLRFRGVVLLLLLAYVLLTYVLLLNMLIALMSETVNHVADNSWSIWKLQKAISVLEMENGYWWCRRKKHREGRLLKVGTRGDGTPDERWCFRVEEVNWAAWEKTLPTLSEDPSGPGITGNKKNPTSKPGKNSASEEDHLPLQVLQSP

[2] = tested on: TRPV3-6M + V587L, A606V, F625L, F656I or F666Y; assay: Two-electrode voltage clamp, TRPV3-6M with individual pore mutations (strong RTx responders); type: cell-based, mouse; conditions: RTx 100 nM, room temperature; magnitude very similar to 2-APB 3 mM
Description: as §1

SMILES	channel activation (current response) (TRPV3-4M/V2P)	channel activation (current response) [1]	response to RTx compared with maximal response to 2-APB (TRPV3-6M/4PM)	saturating concentration of RTx (rat TRPV2-4M) [nM]	channel activation (current response) [2]
NCCOB(c1ccccc1)c1ccccc1 [2-APB, 2-aminoethoxydiphenyl borate]	could be activated	–	–	–	–
C=C(C)[C@]12C[C@@H](C)[C@@]34O[C@](Cc5ccccc5)(O[C@@H]1[C@@H]3C=C(COC(=O)Cc1ccc(O)c(OC)c1)C[C@]1(O)C(=O)C(C)=C[C@@H]41)O2 [RTx, resiniferatoxin]	–	detectable responses	similar	100	robust RTx-activated currents
